Data: ChEMBL document CHEMBL3232869, “Anti-inflammatory components of Euphorbia humifusa Willd” (Bioorg Med Chem Lett, 2014)
Activity calls are given as the source filed them. The rule behind the calls is not given here.

Experiments:
[1] = target: T1, Bifunctional epoxide hydrolase 2 (Homo sapiens) (UniProt P34913); experiment: Inhibition of sEH (unknown origin) assessed as substrate PHOME hydrolysis at 25 uM after 1 hr by fluorescence method
T1 sequence (whole entry): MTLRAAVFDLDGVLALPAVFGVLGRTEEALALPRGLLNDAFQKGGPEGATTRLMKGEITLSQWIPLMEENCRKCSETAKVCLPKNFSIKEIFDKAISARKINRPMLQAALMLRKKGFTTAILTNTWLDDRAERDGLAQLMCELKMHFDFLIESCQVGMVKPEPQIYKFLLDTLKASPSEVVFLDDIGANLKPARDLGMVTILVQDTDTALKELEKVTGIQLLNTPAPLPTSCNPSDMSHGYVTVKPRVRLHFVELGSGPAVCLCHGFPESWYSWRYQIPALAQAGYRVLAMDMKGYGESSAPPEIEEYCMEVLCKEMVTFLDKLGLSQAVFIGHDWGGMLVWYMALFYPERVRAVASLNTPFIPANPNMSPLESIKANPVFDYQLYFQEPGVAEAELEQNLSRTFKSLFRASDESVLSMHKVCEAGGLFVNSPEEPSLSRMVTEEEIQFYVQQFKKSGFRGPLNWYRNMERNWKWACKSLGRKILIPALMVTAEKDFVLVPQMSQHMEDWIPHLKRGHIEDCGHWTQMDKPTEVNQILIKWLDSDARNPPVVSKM

RAW264.7 [2] = experiment: Antiinflammatory activity in mouse RAW264.7 cells assessed as inhibition of LPS-induced TNF-alpha secretion after 18 hrs by sandwich ELISA; format: functional, cell-based; settings: RAW264.7, 18 h
RAW264.7 [3] = experiment: Antiinflammatory activity in mouse RAW264.7 cells assessed as inhibition of LPS-induced TNF-alpha secretion at 0.4 uM after 18 hrs by sandwich ELISA; format: functional, cell-based
RAW264.7 [4] = experiment: Antiinflammatory activity in mouse RAW264.7 cells assessed as inhibition of LPS-induced TNF-alpha secretion at 10 uM after 18 hrs by sandwich ELISA; format: functional
RAW264.7 [5] = experiment: Antiinflammatory activity in mouse RAW264.7 cells assessed as inhibition of LPS-induced nitric oxide production at 10 uM after 18 hrs by griess reaction analysis; format: functional
RAW264.7 [6] = experiment: Antiinflammatory activity in mouse RAW264.7 cells assessed as inhibition of LPS-induced nitric oxide production after 18 hrs by griess reaction analysis; format: functional, cell-based; settings: RAW264.7, 18 h
RAW264.7 [7] = experiment: Cytotoxicity against mouse RAW264.7 cells assessed as cell viability at 50 uM after 18 hrs by MTT assay in presence of LPS; format: cell-based; settings: raw264.7, 18 h
RAW264.7 [8] = experiment: Antiinflammatory activity in mouse RAW264.7 cells assessed as inhibition of LPS-induced nitric oxide production at 0.4 uM after 18 hrs by griess reaction analysis; format: functional, cell-based
[9] = target: T2, Bifunctional epoxide hydrolase 2 (Homo sapiens, UniProt P34913); experiment: Inhibition of sEH (unknown origin) assessed as substrate PHOME hydrolysis after 1 hr by fluorescence method
T2 sequence (P34913 whole entry): T1 sequence (whole entry)

SMILES	inhibition [1] [%]	IC50 (RAW264.7 [2]) [µM]	inhibition (RAW264.7 [3])	inhibition (RAW264.7 [4])	inhibition (RAW264.7 [5])	IC50 (RAW264.7 [6]) [µM]	Activity (RAW264.7 [7])	inhibition (RAW264.7 [8])	IC50 [9] [µM]
O=c1c(O[C@@H]2O[C@H](CO)[C@H](O)[C@H](O)[C@H]2O)c(-c2ccc(O)c(O)c2)oc2cc(O)cc(O)c12 [HYPEROSIDE]	> 40	> 50	inactive	Active	inactive	48.8	Non-toxic	inactive	21.8
O=C(OC[C@H]1O[C@@H](OC(=O)c2cc(O)c(O)c(O)c2)[C@H](O)[C@@H](OC(=O)c2cc(O)c(O)c(O)c2)[C@@H]1OC(=O)c1cc(O)c(O)c(O)c1)c1cc(O)c(O)c(O)c1	> 40	22.6	inactive	Active	inactive	> 50	Non-toxic	inactive	36.1
O=C1C[C@H](C(=O)O)c2c1oc(=O)c1cc(O)c(O)c(O)c21	> 40	21.3	inactive	Active	inactive	41.2	Non-toxic	inactive	47.4
O=c1oc2c(O)c(O)cc3c(=O)oc4c(O)c(O)cc1c4c23 [ELLAGIC ACID]	> 40	> 50	inactive	Active	inactive	35.7	Non-toxic	inactive	20.7
